A short description of data set [1]: Partition coefficient determination (1-octanol/water). It counts as physicochemical. As to conditions: pH: 2.2. How it is done: The partition coefficient of Compound I-1 was determined by the following method. • 1. 20.131 mg of Compound I-1 was dissolved in 2 mL of water saturated with 1-octanol. • 2. 2 mL of 1-octanol saturated with water was added to the solution from step 1. • 3. The two layers were shaken over night at room temperature. • 4. The two layers were analyzed for the concentration of Compound I-1.

The nature of a further data set: Aqueous solubility. It counts as physicochemical. As to conditions: thermodynamic from solid; pH: 2.2, water. How it is done:
>56 mg/ml (pH: 2.2) by adding certain additive amounts of I-1 to 1 ml of water.

The target of another data set is Delta 2 (h) (Homo sapiens, UniProt P41143). The data set can be described thus: Neurotransmitter assay (radioligand binding), Delta 2 (h). The conditions noted are these: radioligand [3H]-Naltrindole.
Delta 2 (h), sequence (P41143 whole entry): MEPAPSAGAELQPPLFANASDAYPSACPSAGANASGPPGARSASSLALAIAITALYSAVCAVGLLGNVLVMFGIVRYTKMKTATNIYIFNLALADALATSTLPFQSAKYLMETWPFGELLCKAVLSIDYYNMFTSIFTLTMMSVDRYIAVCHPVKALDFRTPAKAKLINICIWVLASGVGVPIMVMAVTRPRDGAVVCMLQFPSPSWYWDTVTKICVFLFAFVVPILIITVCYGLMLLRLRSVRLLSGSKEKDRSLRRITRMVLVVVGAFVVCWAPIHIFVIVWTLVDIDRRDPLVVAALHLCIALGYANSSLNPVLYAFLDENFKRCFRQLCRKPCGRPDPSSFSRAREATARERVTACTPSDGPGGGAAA
The next data set concerns the target Kappa 1 (UniProt P41144). It counts as binding.
For the next data set, the target named is Mu (h) (Homo sapiens, UniProt P35372). It counts as binding.
Mu (h), sequence (P35372 whole entry): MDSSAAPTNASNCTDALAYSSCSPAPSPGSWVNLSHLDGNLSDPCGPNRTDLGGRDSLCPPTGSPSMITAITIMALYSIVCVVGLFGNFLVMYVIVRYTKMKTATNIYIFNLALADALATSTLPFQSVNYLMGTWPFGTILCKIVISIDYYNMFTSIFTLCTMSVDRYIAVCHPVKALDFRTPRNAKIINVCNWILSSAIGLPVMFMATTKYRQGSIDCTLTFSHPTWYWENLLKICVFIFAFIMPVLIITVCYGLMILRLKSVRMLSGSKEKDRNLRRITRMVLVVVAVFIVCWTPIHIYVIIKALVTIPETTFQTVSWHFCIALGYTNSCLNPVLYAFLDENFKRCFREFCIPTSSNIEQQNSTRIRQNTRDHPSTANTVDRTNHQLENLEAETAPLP
The target in data set [2] is T1, human recombinant Mu opioid receptors (Homo sapiens, UniProt P35372).
T1 construct: expressed in transfected cells; host or cells: CHO cells
T1 sequence (P35372 whole entry): as above
Description: cell-based.

The nature of data set [3]: Administration in GI-physiology altered dogs (plasma pharmacokinetics). It counts as in vivo. As to conditions: male, beagle, dog, po, 50 mg, single 50 mg capsule. The protocol:
A 50 mg capsule formulation of Compound Ia was screened in gastrointestinal (GI) physiology regulated male beagle dogs. Atropine (˜20 μg/kg; IV) and pentagastrin (˜10 μg/kg; IM) were administered 15 minutes prior to formulation administration and another dose of pentagastrin (10 μg/kg; IM) was administered 30 minutes post dose. Atropine slows down canine GI motility and pentagastrin decreases pH resulting in GI conditions almost similar to that of humans. The capsules ([…]) via oral administration following an overnight fast and blood samples were drawn at 0 (predose), 0.5, 1, 2, 3, 4, 6, 8, 12, 24 and 48 hours after dosing; plasma was separated and assayed for Compound Ia content. All dogs were fed 4 hours post dose.
50 mg Compound Ia capsule contained neat 51.5 mg of Compound Ia 97% purity (50 mg of Compound Ia), filled in #AA-DB HGC Swedish orange capsule.
Bioanalytical results were received and a preliminary PK assessment was performed. Individual dog plasma Compound Ia concentration-time profiles were subjected to noncompartmental pharmacokinetic analyses (WinNonlin, Model 200). The following pharmacokinetic parameters were determined for each dog, and descriptive statistics were calculated: AUC, Cmax, and tmax.

For a further data set, the target named is μ opioid (Homo sapiens, UniProt P35372). The conditions noted are these: from WO2006/127898 and WO2006/127899; cited from earlier work.
μ opioid, sequence (P35372 whole entry): as above
The conditions of data set [4]: white crystalline powder from Mallinckrodt Pharmaceuticals; cited from earlier work.

A value given as a limit tells only on which side of the number the result lay.

Broadly, the logP is the decadic logarithm of the partition coefficient of the neutral form, usually between octanol and water. A high value points to a more lipophilic compound. The solubility is the dissolved amount per volume that the medium holds. A low value points to a poorly soluble substance. As usually defined, the IC50 is the point on the concentration scale where inhibition reaches its midpoint. As a reminder, the AUC(0-inf) is the area under the concentration-time curve extrapolated to infinity. Low readings indicate less exposure, high ones more exposure. Broadly, the AUC(0-t) is exposure summed from dosing to a finite time, without extrapolation to infinity. As usually defined, the Cmax is the highest concentration seen after dosing. For orientation: Tmax means the time at which the peak concentration occurs. In general, half-life refers to how long it takes for the measured level to halve. A higher half-life goes with slow decline. For the compound `C[N+]1(CC2CC2)CC[C@]23c4c5ccc(O)c4O[C@H]2[C@](O)(C(=O)O)C[C@@]3(O)[C@H]1C5` (stereo partly drawn) [Compound Ia, (3R,4R,4aS,6aR,11bS)-6-carboxy-3-(cyclopropylmethyl)-4-a,6,8-trihydroxy-3-methyl-1,2,3,4,4a,5,6,6a-octahydro-4,11-methano[1]benzofuro[3′,2′:2,3]cyclopenta[1,2-c]pyridin-3-ium], in [1], the logP is -2.15. In the data set “Aqueous solubility”, this compound showed a solubility greater than 56 mg/mL. For the same compound, the “Percent Inhibition (Average; N = 2)” value came out at 44.47% on Delta 2 (h), 82.09% at Kappa 1 and 81.62% on Mu (h). Further, the IC50 in [2] is 0.17 µM. In addition, the area under the curve AUC(0-inf) in [3] (Dog 1, PO) amounted to 4.69 µg·h/mL; in [3] (Dog 2, PO) it was 7.74 µg·h/mL; in data set [3] (Dog 3, PO), 6.22 µg·h/mL; in data set [3] (Mean, N 3 dogs), 6.21 µg·h/mL; in data set [3] (Median, N 3 dogs), 6.22 µg·h/mL. For the same compound, the AUC(0-t) in data set [3] (Dog 1, PO) was determined as 4.63 µg·h/mL; in data set [3] (Dog 2, PO), 7.72 µg·h/mL; in data set [3] (Dog 3, PO), 6.21 µg·h/mL; in data set [3] (Mean, N 3 dogs) it was 6.19 µg·h/mL; in data set [3] (Median, N 3 dogs), 6.21 µg·h/mL. The maximum concentration (Cmax) in [3] (Dog 1, PO) amounted to 0.825 µg/mL; in data set [3] (Dog 2, PO) it was 1.67 µg/mL; in data set [3] (Dog 3, PO), 1.58 µg/mL; in [3] (Mean, N 3 dogs) it was 1.36 µg/mL; in data set [3] (Median, N 3 dogs) it was 1.58 µg/mL. The time to peak (Tmax) came to 2 h in [3] (Dog 1, PO); 3 h in data set [3] (Dog 2, PO); 1 h in data set [3] (Dog 3, PO); 2 h in [3] (Mean, N 3 dogs); 2 h in data set [3] (Median, N 3 dogs). Further, the half-life in data set [3] (Dog 1, PO) was 3.9 h; in data set [3] (Dog 2, PO), 2.8 h; in [3] (Dog 3, PO) it was 1.1 h; in data set [3] (Mean, N 3 dogs) it was 2.6 h; in data set [3] (Median, N 3 dogs), 2.8 h.

Take `C[N@@+]1(CC2CC2)CC[C@]23c4c5ccc(O)c4O[C@H]2C(=O)CC[C@@]3(O)C1C5` [R-methylnaltrexone]: on μ opioid, the “Activity at μ opioid receptor (agonist/antagonist)” value was “antagonist activity”.

As for `C[N+]1(CC2CC2)CC[C@]23c4c5ccc(O)c4O[C@H]2C(=O)CC[C@@]3(O)[C@H]1C5` (stereo partly shown) [S-methylnaltrexone], the “Activity at μ opioid receptor (agonist/antagonist)” value on μ opioid is “peripheral μ opioid agonist”.

Regarding `C[N+]1(CC2CC2)CC[C@]23c4c5ccc(O)c4O[C@H]2C(=O)CC[C@@]3(O)[C@H]1C5` (stereo partly shown) [methylnaltrexone], the Solubility in water result in data set [4] is recorded as “freely soluble in water”.

The values are drawn from patent publication US7501434B2, “6-carboxy-normorphinan derivatives, synthesis and uses thereof” (Wyeth, priority 2006, dated 2009).
